# Data reported in US20090312408A1, “ISOFLAVAN AND ISOFLAVENE COMPOUNDS AND THEIR USE AS ANGIOGENESIS INHIBITORS” (priority 2006, published 2009).
# pIC50: −log10 of the molar value.
# What was measured:
# A-431 tumors = test: A-431 murine tumor xenograft model; format: in vivo, BALB/c nude mice
# Protocol: To assess the in vivo antiangiogenic/antitumor activity of F47, female immunodeficient mice (5-8 week-old BALB/c nude mice, Charles River, Milan, Italy) were s.c. inoculated in the right flank with 10^7 A-431 cells in a volume of 50 μl (Morbidelli et al., Clinic Cancer Res, 2003; 9(14): 5358-69). After 9 days, when tumors reached a volume of 170 mm^3, animals were randomly assigned to 2 different experimental protocols (9-10 mice per group). Peritumor treatment with F47 (5 μg/day/mice) or vehicle started. The local peritumor treatment was performed at the dose of 5 μg/50 μl/mouse/day. The vehicle containing the same concentrations of solvents (1% ethanol+1% DMSO) was used as control. Daily treatment was performed for 10 consecutive days. Serial caliper measurements of perpendicular diameters were used to calculate tumor volume using the following formula: (shortest diameter×longest diameter×thickness of the tumor in mm). Data are reported as tumor volume in mm^3. Experiments have been performed in accordance with the guidelines of the European Economic Community for animal care and welfare (EEC Law No. 86/609) and National Ethical Committee. Animals were observed daily for signs of cytotoxicity and were sacrified by CO2 asphyxiation.
# At day 10 animals were sacrificed and each tumor was immediately frozen in liquid nitrogen. Seven-μm-thick cryostat sections were stained with hematoxylin and eosin and adjacent sections were used for immunohistochemical staining with the anti-ED-B monoclonal antibody after fixation in absolute cold acetone.
# FIG. 5 refers to the antitumor activity of F47 evaluated in nude mice inoculated with A-431 cells and treated after the onset of tumor growth (day 9 from inoculation, >150 mm^3 tumor volume). Peri-tumor treatment with F47 (5 μg/mice/day) or vehicle continued for 10 days. Data are reported as tumor volume in mm^3 (means±SEM of […]).
# [1] = tested on: Bovine Microvascular Endothelial (BME) cells; test: In vitro angiogenesis assay (tube formation in 3D collagen gel); format: cell-based; details: 50 μM, pictures after 7 days
# Protocol: Collagen was solubilized from rat tail tendons essentially as described by Strom and Michalopoulos, Methods Enzymol 82: 544-555, 1982 and Dharmsathaphorn and Madara, Methods Enzymol. 192: 354-389, 1990. In order to prepare collagen gel, 8 volumes of a cold collagen solution from rat tail tendons (approximately 1.5 mg/ml) were quickly mixed with 1 volume of 10× minimal essential medium (MEM) without bicarbonate and 1 volume of sodium bicarbonate (11.76 mg/ml) on ice. F47 or DMSO was added at final concentration of 50 μM and the mixture was quickly dispensed into 2.00 cm^2-tissue culture wells and it was polymerized at 37° C. for 10 min (Montesano et al., J. Cell Biol. 97: 1648-1652, 1983). Bovine Microvascular Endothelial (BME) cells were seeded onto collagen gel in 500 μl of D-MEM supplemented with 10% Donkey Calf Serum (DCS), 1% glutamine and 1% penicillin-streptomycin, containing F47 (50 μM) or DMSO (control sample). The cells were left at 37° C. for 90-120 min to be attached. Following that, the medium was removed and a second layer of 200 μl of collagen mixture, containing F47 (50 μM) or DMSO, was added on the top. Again, collagen was allowed to polymerize at 37° C. for 10 min. Finally, 500 μl of medium, containing either F47 (50 μM) or DMSO, was added on the top. The ultimate layer of the medium was changed every 2 days renewing thus F47 or DMSO. Pictures were taken after 7 days. […]
# HUVEC = test: VEGF-induced endothelial cell proliferation, analysis by Ki67 immunostaining; format: cell-based; details: Homo sapiens, HUVECs, VEGF 50 ng/ml, 6 hr, read-out: half-maximal concentration, inhibition of VEGF-induced proliferation of endothelial cells
# Protocol: (§1) Human endothelial cells from umbilical vein (HUVEC) were plated on dishes pre-coated with rat collagen type I (Becton Dickinson Biosciences) and cultured in M199 medium supplemented with 20% fetal calf serum, FCS, 50 ng/ml endothelial cell growth supplement (ECGS, Sigma), heparin […] (Sigma) and 1% penicillin-streptomycin. All media and sera for cell culture were purchased from Invitrogen and were endotoxin-free. F47 was tested for endotoxin content using the QCL1000 kit from BioWhittaker, Inc. Stock solutions of F47 were resuspended in DMSO/ethanol, 1/1 by volume, and added directly to the culture medium. Cells not receiving F47 were incubated in the corresponding volume of DMSO/ethanol.
# HUVECs (3×10^4) were grown on cover slips and serum starved in a medium containing 5% FCS for 12 hr. Cells were induced with VEGF (50 ng/ml) in the presence or absence of F47 (10 μM) for 6 hr, fixed in 3.7% paraformaldehyde and processed for indirect immunofluorescence using an anti-Ki67 antibody. Cells were counterstained with Hoechst 33342. […] Ki67 antigen is only expressed in active phases of the cell cycle, but not in G0 phase and the percentage of the Ki67-positive cells represents the proliferating population.
# One of the main angiogenic endothelial cell responses is proliferation, in which the effect of F47 was examined. […]
# BBCE cells = test: bFGF-induced endothelial cell proliferation, analysis by cell counting; format: cell-based; details: 120 h, 2.5 ng/ml bFGF, cell counting on day 5 or 6, read-out: half-maximal concentration, inhibition of bFGF-induced proliferation of endothelial cells
# Protocol: BBCE cells were seeded (day 0) in 12-well tissue culture plates at a density of 1250 cells/cm^2 (5000 cells/ml/well) and the following day (day 1), wells received 5 μl of the compound dilutions to be tested and 2.5 ng/ml bFGF. This treatment was repeated after two days (day 3). On day 5 or 6, cells in duplicate wells were trypsinized and counted using a Coulter particle counter. Ten dilutions were tested for each compound.
# One of the main angiogenic endothelial cell responses is proliferation, in which the effect of F47 was examined. The effect of F47 on bFGF-induced endothelial cell proliferation was studied using cell counting, the results being shown in FIG. 1. […] F47 inhibited both bFGF- and VEGF-induced proliferation of endothelial cells with half-maximal concentrations of 3 and <1 μM, respectively.
# HUVECs = test: Endothelial cell survival/apoptosis, FACS analysis (sub-G1 DNA content); format: cell-based, Human; details: serum-starved HUVECs (5% FCS), F47 10 μM, 15 hr
# Protocol: as §1
# For analysis by flow cytometry, HUVECs were serum starved for 15 hr in medium containing 5% FCS and treated with VEGF (50 ng/ml) in the presence or absence of F47 (10 μM for the same period of time). At the end of the incubation time, floating and adherent cells were collected in ice-cold PBS, stained with propidium iodine using the CycleTEST PLUS DNA Reagent kit (Becton Dickinson Biosciences) and processed for flow cytometric analysis using a Becton Dickinson Fluorescence Activated Cell Scanner (FACS). The percentage of cells with a sub-G1 DNA content was considered as the cell population that had undergone apoptosis. […]
structure (smiles),measurement,setting,value
"COc1cc2c(cc1O)OCC(c1ccc(O)cc1)C2 (centres unmarked) [F47, 7,4′-dihydroxy-6-methoxy-isoflavan]",survival of mice,"A-431 tumors; day 8, peritumor 5 μg/day/mice",78%
same,presence of tumor vasculature (anti-ED-B antibody staining of B-fibronectin),"A-431 tumors; day 10, peritumor 5 μg/day, tumor sections",absent
same,tumors smaller than in control mice (tumor volume),"A-431 tumors; peritumor 5 μg/day/mice, P<0.01 vs vehicle group at day 6 and 8, 4 animals/group",approximately 50%
same,in vitro angiogenesis (tube formation) in 3D collagen cultures,[1],strongly inhibited
same,pIC50,HUVEC,> 6.00
same,pIC50,BBCE cells,5.52
same,effect on VEGF-induced endothelial cell survival,HUVECs; VEGF 50 ng/ml,did not inhibit
same,level of apoptosis of serum-deprived HUVECs (toxic or apoptotic effects of the compound itself),HUVECs; no VEGF,did not further increase
